{
  "source": "patent US8461160B2",
  "about": "“Dihydropyrimidinones” (Hoffmann-La Roche, Inc., priority 2009, dated 2013)",
  "data": [
    {"target": "T1, BACE2 (Homo sapiens, UniProt Q9Y5Z0)", "T1 construct": "BACE2 enzyme ectodomain (derived from plasmid “pET17b-T7-hu proBACE2”) was prepared as described in Ostermann et al; T7 tag (N); made in house", "T1 sequence (Q9Y5Z0 21-473 limits assumed)": "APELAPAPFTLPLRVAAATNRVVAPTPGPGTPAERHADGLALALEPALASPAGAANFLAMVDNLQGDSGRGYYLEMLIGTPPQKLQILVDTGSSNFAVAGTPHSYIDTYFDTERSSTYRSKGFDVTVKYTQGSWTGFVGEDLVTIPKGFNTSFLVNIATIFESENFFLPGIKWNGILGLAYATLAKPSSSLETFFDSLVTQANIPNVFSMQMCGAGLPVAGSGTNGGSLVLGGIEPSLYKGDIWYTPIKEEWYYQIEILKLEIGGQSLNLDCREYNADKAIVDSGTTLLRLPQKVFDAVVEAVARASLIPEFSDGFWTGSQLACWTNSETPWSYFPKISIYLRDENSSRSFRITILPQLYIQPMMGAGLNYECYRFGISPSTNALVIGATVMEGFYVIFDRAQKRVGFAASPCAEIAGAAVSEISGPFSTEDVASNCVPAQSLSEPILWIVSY", "test": "Fluorescent-peptide cleavage assay for BACE2 inhibition", "format": "biochemical", "details": "BACE2 enzyme ectodomain, fluorescent peptide WS EVNLD AEFRC-MR121, assay buffer pH 4.5, room temperature", "in_short": "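Pro-enzyme BACE2 was activated at 80 nM for 1 h at room temperature in 100 mM Na-acetate, 20 mM EDTA, 0.05% BSA, pH 4.5, then preincubated 10 min with compound. IC50 from sigmoidal dose-response fit.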", "units": {"IC50": "nM"}, "values": [
      {"smiles": "C[C@H]1C(=O)N(C)C(N)=N[C@]1(C)c1cccc(NC(=O)c2ccc(Cl)cn2)c1", "note": "[Example 91, 5-Chloro-pyridine-2-carboxylic acid [3-((4S,5R)-2-amino-1,4,5-trimethyl-6-oxo-1,4,5,6-tetrahydro-pyrimidin-4-yl)-phenyl]amide]", "IC50": 17},
      {"smiles": "CC[C@H]1C(=O)N(C)C(N)=N[C@]1(C)c1cccc(NC(=O)c2ccc(Cl)cn2)c1", "note": "[Example 92, 5-Chloro-pyridine-2-carboxylic acid [3-((4S,5R)-2-amino-5-ethyl-1,4-dimethyl-6-oxo-1,4,5,6-tetrahydro-pyrimidin-4-yl)-phenyl]-amide]", "IC50": 24},
      {"smiles": "COc1cccnc1C(=O)Nc1cccc([C@@]2(C)N=C(N)N(C)C(=O)C2(C)C)c1", "note": "[Example 93, 3-Methoxy-pyridine-2-carboxylic acid [3-((R)-2-amino-1,4,5,5-tetramethyl-6-oxo-1,4,5,6-tetrahydro-pyrimidin-4-yl)-phenyl]amide]", "IC50": 158},
      {"smiles": "CN1C(=O)C(C)(C)[C@@](C)(c2cccc(NC(=O)c3ccc(Cl)cn3)c2)N=C1N", "note": "[Example 94, 5-Chloro-pyridine-2-carboxylic acid [3-((R)-2-amino-1,4,5,5-tetramethyl-6-oxo-1,4,5,6-tetrahydro-pyrimidin-4-yl)-phenyl]amide]", "IC50": 20},
      {"smiles": "Cc1cc(Cl)cnc1C(=O)Nc1cccc([C@@]2(C)N=C(N)N(C)C(=O)C2(C)C)c1", "note": "[Example 95, 5-Chloro-3-methyl-pyridine-2-carboxylic acid [3-((R)-2-amino-1,4,5,5-tetramethyl-6-oxo-1,4,5,6-tetrahydro-pyrimidin-4-yl)-phenyl]amide]", "IC50": 19},
      {"smiles": "CN1C(=O)C(C)(C)[C@@](C)(c2cccc(NC(=O)c3nccc4ccsc34)c2)N=C1N", "note": "[Example 96, Thieno[2,3-c]pyridine-7-carboxylic acid [3-((R)-2-amino-1,4,5,5-tetramethyl-6-oxo-1,4,5,6-tetrahydro-pyrimidin-4-yl)-phenyl]amide]", "IC50": 370},
      {"smiles": "CN1C(=O)C(C)(C)[C@@](C)(c2cccc(NC(=O)c3ncccc3-c3ccccc3Cl)c2)N=C1N", "note": "[Example 97, 3-(2-Chloro-phenyl)-pyridine-2-carboxylic acid [3-((R)-2-amino-1,4,5,5-tetramethyl-6-oxo-1,4,5,6-tetrahydro-pyrimidin-4-yl)-phenyl]amide]", "IC50": 180},
      {"smiles": "CN1C(=O)C(C)(C)[C@@](C)(c2cc(NC(=O)c3ccn(C)n3)ccc2F)N=C1N", "note": "[Example 98, 1-Methyl-1H-pyrazole-3-carboxylic acid [3-((S)-2-amino-1,4,5,5-tetramethyl-6-oxo-1,4,5,6-tetrahydro-pyrimidin-4-yl)-4-fluoro-phenyl]amide]", "IC50": 35},
      {"smiles": "Cc1cc(Cl)cnc1C(=O)Nc1ccc(F)c([C@@]2(C)N=C(N)N(C)C(=O)C2(C)C)c1", "note": "[Example 99, 5-Chloro-3-methyl-pyridine-2-carboxylic acid [3-((S)-2-amino-1,4,5,5-tetramethyl-6-oxo-1,4,5,6-tetrahydro-pyrimidin-4-yl)-4-fluoro-phenyl]amide]", "IC50": 13},
      {"smiles": "CN1C(=O)C(C)(C)[C@@](C)(c2cc(NC(=O)c3ccccn3)ccc2F)N=C1N", "note": "[Example 100, Pyridine-2-carboxylic acid [3-((S)-2-amino-1,4,5,5-tetramethyl-6-oxo-1,4,5,6-tetrahydro-pyrimidin-4-yl)-4-fluoro-phenyl]amide]", "IC50": 43},
      {"smiles": "Cc1nc(C(=O)Nc2ccc(F)c([C@@]3(C)N=C(N)N(C)C(=O)C3(C)C)c2)co1", "note": "[Example 101, 2-Methyl-oxazole-4-carboxylic acid [3-((S)-2-amino-1,4,5,5-tetramethyl-6-oxo-1,4,5,6-tetrahydro-pyrimidin-4-yl)-4-fluoro-phenyl]amide]", "IC50": 21},
      {"smiles": "Cc1ccc(C(=O)Nc2ccc(F)c([C@@]3(C)N=C(N)N(C)C(=O)C3(C)C)c2)s1", "note": "[Example 102, 5-Methyl-thiophene-2-carboxylic acid [3-((S)-2-amino-1,4,5,5-tetramethyl-6-oxo-1,4,5,6-tetrahydro-pyrimidin-4-yl)-4-fluoro-phenyl]amide]", "IC50": 52}
    ]}
  ]
}
